Data: patent US20260224595A1, “COMPOUNDS FOR THE TREATMENT OF MYOTONIC DYSTROPHY” (ETH ZURICH, priority 2022, published 2026)

Tested on: miR-122 targets
Test: RNA-Seq of miR-122 targetome (negative control)
Type: cell-based, human
Experimental: As described in Example 3, total RNA was isolated from DM-patient and healthy cells, and cDNA libraries were prepared for three conditions (healthy volunteer (HV); DM; DM+Compound II) for DM1 and DM2 backgrounds. The expression levels of predicted targetomes of miRNAs let-7, miR-1, miR-9, miR-29, miR-30, miR-107 and miR-181 were then compared, using miR-122 as well as more than 2,000 transcripts that are not predicted targets of any miRNA as negative controls. Three pair-wise comparisons were performed to measure: i) how a targetome varies between healthy and diseased cells (HV versus DM), ii) how a targetome responds to treatment with the inventive compounds (DM versus DM+Compound II) and, iii) how a Compound II-treated DM-targetome compares to that of a healthy signature. For each pair-wise comparison, the third dataset was used as a reference and the fold changes were calculated for each target transcript (e.g. DM1 vs. DM1+Compound II, with fold changes calculated relative to HV).
Primary myoblasts or myotubes derived from DM1 or DM2 patient samples and non-DM healthy control individuals were cultured for 90% confluence and then treated with 120 μM Compound II for 72 h. […] Quality and size distribution of the generated libraries was validated using an Agilent 2100 bioanalyzer with high-sensitivity RNA chip (Agilent) and RNA yield was measured using the Qubit […] HS Assay Kit followed by pooling of the libraries in batches of 12 and sequencing of […] pooled library on an Nextseq 500/High Output Flow Cell Cartridge using a paired end, 2×76 reads, single index protocol.
RNA-Seq reads were mapped to the human genome (build GRCh38) using STAR (Dobin et al., (2013). STAR: ultrafast universal RNA-seq aligner. Bioinformatics 29, 15-21) with gene annotations from gencode (www.gencodegenes.org; version 40). Reads mapping uniquely to exons were counted for each gene using htseq-count (Anders et al., (2015). HTSeq—a Python framework to work with high-throughput sequencing data. Bioinformatics 31, 166-169) with the parameter -s reverse and -m intersection_strict. […]

## CC(=O)N(C)c1cccc(-c2ccc3nnc(C)n3n2)c1 [Compound II]
DM1 and DM2 myotubes, 120 μM, 72 h
  change of miR-122 targets: not significantly changed
DM1 myoblasts, 120 μM, 72 h
  change of miR-122 targets: not significantly changed
DM2 myoblasts, compared to targetomes of other miRNAs
  change of miR-122 targets: weaker change
